In the RepoRT retention time repository (doi:10.1007/s11306-014-0727-x):
Where a name gives a salt, the structure may show the parent alone.

assay: HILIC, Merck SeQuant ZIC-pHILIC, 100 × 2.1 mm, 5 µm, 25 °C; gradient (min/%B) 0/3 1/3 12/30 14.5/90 17/90 18.5/3 24/3; conditions: stereoisomer not certain

Row | Compound | LC retention time
1 | COc1ccc2[nH]cc(CC(N)C(=O)O)c2c1 (racemic) [5-Methoxy-DL-tryptophan] | 9.74 min
2 | NCCC(N)C(=O)O (racemic) [DL-2-4-Diaminobutyric acid dihydrochloride] | 15.9 min
3 | NC(CCCC(N)C(=O)O)C(=O)O (racemic) [DL-2-6-Diaminopimelic acid] | 14.8 min
4 | NC(CC(=O)O)C(=O)O (racemic) [DL-Aspartic acid] | 13.6 min
5 | NC(CCS)C(=O)O (racemic) [DL-Homocysteine] | 11.1 min
6 | Nc1ncnc2c1ncn2C1CC(O)C(CO)O1 (centres undefined) [2'-Deoxyadenosine] | 7.15 min
7 | O=C(O)c1cc(=O)c2cccc(O)c2[nH]1 [4 8-Dihydroxyquinoline-2-carboxylic acid] | 9.54 min
8 | CN(C)c1ccc(C=CC=O)cc1 [4-(dimethyl amino) cinnamaldehyde] | 1.17 min
9 | COc1ccc2[nH]cc(CCN)c2c1 [5-methoxytryptamine] | 9.56 min
10 | CC(C)=CCNc1ncnc2nc[nH]c12 [6-(Y-Y-Dimethylallylamino)purine] | 2.88 min
11 | c1cnc2[nH]ccc2c1 [7-Azaindole] | 1.74 min
12 | CC(N)=O [Acetamide] | 2.38 min
13 | Nc1ncnc2nc[nH]c12 [Adenine] | 8.22 min
14 | Nc1ncnc2c1ncn2C1OC(CO)C(O)C1O (centres undefined) [Adenosine] | 7.78 min
15 | CC(N)C(=O)O (centres undefined) [Alanine] | 12.1 min
16 | CC(N)(CO)CO [Amino-2-methylpropane-1 3-diol 2-] | 12.7 min
17 | NCc1ccccc1 [Benzylamine] | 10.2 min
18 | CC(=O)OCC1OC(OC(C)=O)C(OC(C)=O)C(OC(C)=O)C1OC(C)=O (stereo not drawn) [Beta-Penta acetyl glucose] | 1.06 min
19 | O=C(O)CC1OCC=C2CN3CCC45C6=CC(=O)C(=O)C([N+](=O)[O-])=C6NC4C1C2CC35 (centres undefined) [Cacotheline] | 11.6 min
20 | Oc1cc(O)c2c(c1)OC(c1ccc(O)c(O)c1)C(O)C2 (centres undefined) [Catechin] | 8.63 min
21 | COc1cc2c(c(OC)c1OC)-c1ccc(OC)c(=O)cc1C(NC(C)=O)CC2 (centres undefined) [Colchicine] | 1.36 min
22 | CN1CC(=O)NC1=N [Creatinine] | 9.87 min
23 | NC(CS)C(=O)O (centres undefined) [Cysteine] | 11.8 min

Row | Compound | LC retention time
24 | Nc1ccn(C2OC(CO)C(O)C2O)c(=O)n1 (centres undefined) [Cytidine] | 10.5 min
25 | Nc1ccnc(=O)[nH]1 [Cytosine] | 10.4 min
26 | O=C(CO)C(OC1OC(CO)C(O)C(O)C1O)C(O)C(O)CO (stereo not drawn) [D(+)turanose] | 12.6 min
27 | CC(C)C[C@@H](N)C(=O)O [D-Leucine] | 9.5 min
28 | N[C@H](Cc1c[nH]c2ccccc12)C(=O)O [D-Tryptophan] | 10.1 min
29 | Nc1ccccc1C(=O)CC(N)C(=O)O [D-kynurenine] | 9.76 min
30 | CC(C)[C@@H](N)C(=O)O [D-valine] | 10.5 min
31 | Nc1ccn(C2CC(O)C(CO)O2)c(=O)n1 (centres undefined) [Deoxycytidine] | 10 min
32 | Nc1nc2c(ncn2C2CC(O)C(CO)O2)c(=O)[nH]1 (centres undefined) [Deoxyguanosine] | 9.48 min
33 | COc1cc(-c2ccc(N)c(OC)c2)ccc1N [Dianisidine o-] | 1.46 min
34 | COc1ccc(Cc2cnc(N)nc2N)cc1OC [Diaveridine] | 8.91 min
35 | c1ccc(CNCc2ccccc2)cc1 [Dibenzylamine] | 7.37 min
36 | C(=NC1CCCCC1)=NC1CCCCC1 [Dicyclohexylcarbodiimide-n n'] | 1.09 min
37 | OCCNCCO [Diethanolamine] | 11.3 min
38 | NC(Cc1ccc(O)c(O)c1)C(=O)O [Dihydroxyphenyl-analine L-3 4] | 12.7 min
39 | CN(C)Cc1ccccc1 [Dimethylbenzylamine N N-] | 7.54 min
40 | NCCO [Ethanolamine] | 12.9 min
41 | Nc1nc2ncc(CNc3ccc(C(=O)NC(CCC(=O)O)C(=O)O)cc3)nc2c(=O)[nH]1 (centres undefined) [Folic Acid] | 11.4 min
42 | NCCCC(=O)O [Gamma-amino-n-butyric acid] | 11.6 min
43 | NC(=O)CCC(N)C(=O)O [Glutamine L-] | 12.9 min
44 | NC(N)=NCC(=O)O [Glycocyamine] | 12.8 min
45 | NCC(=O)NCC(=O)O [Glycylglycine] | 14.4 min
46 | Nc1nc2nc[nH]c2c(=O)[nH]1 [Guanine] | 9.81 min

Row | Compound | LC retention time
47 | Nc1nc2c(ncn2C2OC(CO)C(O)C2O)c(=O)[nH]1 (centres undefined) [Guanosine] | 10.6 min
48 | O=c1[nH]cnc2nc[nH]c12 [Hypoxanthine] | 7.88 min
49 | c1c[nH]cn1 [Imidazole] | 10.4 min
50 | O=C(O)CNCC(=O)O [Iminodiacetic acid] | 13.7 min
51 | NC(=O)Cc1c[nH]c2ccccc12 [Indole-3-acetamide] | 2.48 min
52 | O=c1[nH]cnc2c1ncn2C1OC(CO)C(O)C1O (centres undefined) [Inosine] | 9.18 min
53 | O=C(O)C1CCNCC1 [Isonipecotic acid] | 11 min
54 | N[C@@H](CCCC(=O)O)C(=O)O [L-2-Aminoadipic acid] | 12.4 min
55 | O=P([O-])([O-])OCC(O)CO [L-Alpha-Glycerophosphate] | 13.5 min
56 | NC(N)=NCCC[C@H](N)C(=O)O [L-Arginine] | 16 min
57 | NC(=O)C[C@H](N)C(=O)O [L-Asparagine] | 13.2 min
58 | N[C@@H](Cc1cnc[nH]1)C(=O)O [L-Histidine monohydrochloride] | 15.7 min
59 | N[C@@H](CCO)C(=O)O [L-Homoserine] | 12.6 min
60 | NCCCC[C@H](N)C(=O)O [L-Lysine] | 15.9 min
61 | CCCC[C@H](N)C(=O)O [L-Norleucine] | 9.62 min
62 | NCCC[C@H](N)C(=O)O [L-Ornithine] | 15.9 min
63 | O=C(O)[C@@H]1CCCN1 [L-Proline] | 10.4 min
64 | CCNC(=O)CC[C@H](N)C(=O)O [L-Theanine] | 10.6 min
65 | CCC(N)C(=O)O [L-a-Amino-n-butyric acid] | 11.6 min
66 | NCCc1c[nH]c2ccccc12 [Tryptamine] | 9.86 min
67 | NCCc1ccc(O)cc1 [Tyramine] | 10.5 min

Continued, values first:

Row | LC retention time | Compound
68 | 13.5 min | OCC1OC(OC2C(CO)OC(O)C(O)C2O)C(O)C(O)C1O (single isomer, unassigned; peak a) [Lactose Peak A]
69 | 11.9 min | Cl.N[C@@H](CS)C(=O)O.O [L-cysteine hydrochloride hydrate]
70 | 10 min | CC(C)(C)[C@H](N)C(=O)O [L-tert-Leucine]
71 | 12.5 min | C[C@@H](O)[C@H](N)C(=O)O [L-threonine]
72 | 11.2 min | N[C@@H](Cc1ccc(O)cc1)C(=O)O [L-tyrosine]
73 | 7.45 min | CC(O)C(=O)O (centres undefined) [Lactic acid]
74 | 14.3 min | O=C(O)C(O)C(O)C(OC1OC(CO)C(O)C(O)C1O)C(O)CO (centres undefined) [Lactobionic acid]
75 | 6.55 min | O=c1c(O)c(-c2ccc(O)cc2O)oc2cc(O)cc(O)c12 [Morin]
76 | 10.4 min | C1COCCN1 [Morpholine]
77 | 7.51 min | CC1OC(OC2C(Oc3cc(O)c4c(c3)OC(c3ccc(O)cc3)CC4=O)OC(CO)C(O)C2O)C(O)C(O)C1O (centres undefined) [Naringin CHR]
78 | 14.1 min | NC(=O)c1ccc[n+](C2OC(COP(=O)(O)OP(=O)([O-])OCC3OC(n4cnc5c(N)ncnc54)C(O)C3O)C(O)C2O)c1 (centres undefined) [Nicotinamide adenine dinucleotide]
79 | 2.35 min | O=C(O)c1cccnc1 [Nicotinic acid]
80 | 10.4 min | COC(C)C(N)C(=O)O (centres undefined) [O-methyl threonine]
81 | 14.5 min | C[C@@H](OP(=O)(O)O)[C@H](N)C(=O)O [O-phospho-L-threonine]
82 | 2.26 min | Nc1ccc(C(=O)O)cc1 [P-Aminobenzoic acid]
83 | 7.09 min | O=C(CCc1ccc(O)cc1)c1c(O)cc(O)cc1OC1OC(CO)C(O)C(O)C1O (centres undefined) [Phloridzin]

Row | LC retention time | Compound
84 | 10.3 min | Cc1ncc(COP(=O)(O)O)c(C=O)c1O [Pyridoxal-5'-phosphate]
85 | 9.21 min | Cc1ncc(CO)c(CO)c1O [Pyridoxine]
86 | 1.9 min | O=C(O)c1ccc2ccccc2n1 [Quinaldic acid]
87 | 7.85 min | Cc1cc2nc3c(=O)[nH]c(=O)nc-3n(CC(O)C(O)C(O)CO)c2cc1C (centres undefined) [Riboflavin]
88 | 9.3 min | CC1OC(OCC2OC(Oc3c(-c4ccc(O)c(O)c4)oc4cc(O)cc(O)c4c3=O)C(O)C(O)C2O)C(O)C(O)C1O (centres undefined) [Rutin Trihydrate]
89 | 13.2 min | NC(CO)C(=O)O [Serine L-]
90 | 12.6 min | NCCS(=O)(=O)O [Taurine]
91 | 2.28 min | Cn1c(=O)c2[nH]cnc2n(C)c1=O [Theophylline]
92 | 11.9 min | Cc1cn(C2CC(O)C(COP(=O)(O)O)O2)c(=O)[nH]c1=O (centres undefined) [Thymidine monophosphate]
93 | 4.41 min | Cc1cn(C2CC(O)C(CO)O2)c(=O)[nH]c1=O (centres undefined) [Thymidine]
94 | 3.51 min | Cc1c[nH]c(=O)[nH]c1=O [Thymine]
95 | 12.1 min | O=C(O)[C@@H]1C[C@@H](O)CN1 [Trans-4-hydroxy-L-proline]
96 | 7.16 min | NC(N)=O [Urea]
97 | 8.29 min | O=c1[nH]c(=O)c2[nH]cnc2[nH]1 [Xanthine]
98 | 1.22 min | O=c1c2ccccc2oc2ccccc12 [Xanthone]
99 | 5.67 min | Nc1ccc(C(=O)NCC(=O)O)cc1 [p-aminohippuric acid]
